# Assays:
# [1] = molecular target: T1, ATP-dependent translocase ABCB1 (Homo sapiens, UniProt P08183); test: TP_TRANSPORTER: increase in Doxorubicin intracellular accumulation (Doxorubicin: […], Megestrol acetate: 50 uM) in HCT-116/VM46 cells, flow cytometry; assay type: functional, cell-based; settings: hct-116/vm46, 50 µM
# [2] = molecular target: T1, ATP-dependent translocase ABCB1; test: TP_TRANSPORTER: increase in Doxorubicin intracellular accumulation (Doxorubicin: […], Megestrol acetate: 25 uM) in MCF-7/ADR cells, flow cytometry; assay type: functional, cell-based; settings: nci/adr-res
# T1 sequence (P08183 whole entry): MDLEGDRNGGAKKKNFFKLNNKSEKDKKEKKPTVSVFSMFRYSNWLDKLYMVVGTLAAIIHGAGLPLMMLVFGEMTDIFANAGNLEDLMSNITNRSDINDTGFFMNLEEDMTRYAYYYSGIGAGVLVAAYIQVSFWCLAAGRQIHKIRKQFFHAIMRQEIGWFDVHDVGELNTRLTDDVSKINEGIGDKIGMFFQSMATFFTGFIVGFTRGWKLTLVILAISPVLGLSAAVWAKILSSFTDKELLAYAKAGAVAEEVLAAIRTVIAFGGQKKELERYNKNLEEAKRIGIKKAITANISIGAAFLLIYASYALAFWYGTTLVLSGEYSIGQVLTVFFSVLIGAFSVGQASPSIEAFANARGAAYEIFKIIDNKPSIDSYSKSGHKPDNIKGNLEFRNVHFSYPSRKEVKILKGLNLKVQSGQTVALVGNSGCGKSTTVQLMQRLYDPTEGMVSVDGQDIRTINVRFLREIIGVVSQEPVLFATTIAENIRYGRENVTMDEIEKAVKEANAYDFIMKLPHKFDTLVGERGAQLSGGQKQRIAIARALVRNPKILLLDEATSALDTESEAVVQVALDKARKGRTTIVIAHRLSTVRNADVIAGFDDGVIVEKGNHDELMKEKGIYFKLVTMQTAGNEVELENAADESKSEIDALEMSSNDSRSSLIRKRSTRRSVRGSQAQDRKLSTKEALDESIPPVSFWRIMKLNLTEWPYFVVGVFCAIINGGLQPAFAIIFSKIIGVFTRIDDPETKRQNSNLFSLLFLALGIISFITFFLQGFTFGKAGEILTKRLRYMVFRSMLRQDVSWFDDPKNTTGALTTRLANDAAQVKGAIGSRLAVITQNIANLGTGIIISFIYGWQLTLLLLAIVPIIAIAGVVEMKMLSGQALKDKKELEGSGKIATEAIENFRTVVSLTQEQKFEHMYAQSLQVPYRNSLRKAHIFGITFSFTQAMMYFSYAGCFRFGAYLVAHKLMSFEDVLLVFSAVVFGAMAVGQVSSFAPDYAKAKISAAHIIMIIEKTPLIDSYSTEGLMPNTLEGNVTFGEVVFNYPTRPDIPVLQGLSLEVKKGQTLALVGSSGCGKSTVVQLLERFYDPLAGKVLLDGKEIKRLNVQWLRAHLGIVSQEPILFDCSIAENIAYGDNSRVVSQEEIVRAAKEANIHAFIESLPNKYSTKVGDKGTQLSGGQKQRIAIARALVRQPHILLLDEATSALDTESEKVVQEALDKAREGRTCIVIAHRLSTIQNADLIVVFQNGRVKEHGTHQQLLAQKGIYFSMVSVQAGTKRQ
structure (smiles),measurement,setting,value
CC(=O)O[C@]1(C(C)=O)CC[C@H]2[C@@H]3C=C(C)C4=CC(=O)CC[C@]4(C)[C@H]3CC[C@@]21C [MEGESTROL ACETATE],Activity,[1],inhibitor [+]
same,Activity,[2],inhibitor [+]
